Results: patent US4572895A, “Process for preparing an antibiotic complex by culturing actinomyces strain ATCC 39417” (priority 1985, dated 1986)
≈ marks a conversion by molar mass, not a printed value.

Tests used:
[1] = system: Staphylococcus aureus 209P; assay: MIC, serial two-fold agar dilution; format: cell-based; conditions: nutrient agar
[2] = system: Staphylococcus aureus Smith; assay: MIC, serial two-fold agar dilution; format: cell-based; conditions: nutrient agar
[3] = system: Bacillus subtilis PCI 219; assay: MIC, serial two-fold agar dilution; format: cell-based; conditions: PCI219, nutrient agar
[4] = system: Micrococcus luteus PCI 1001; assay: MIC, serial two-fold agar dilution; format: cell-based; conditions: PCI1001, nutrient agar
Micrococcus flavus D12 = assay: MIC, serial two-fold agar dilution; format: cell-based; conditions: nutrient agar
Escherichia coli NIHJ = assay: MIC, serial two-fold agar dilution; format: cell-based; conditions: nutrient agar
[5] = system: Klebsiella pneumoniae D11; assay: MIC, serial two-fold agar dilution; format: cell-based; conditions: nutrient agar
[6] = system: Pseudomonas aeruginosa D15; assay: MIC, serial two-fold agar dilution; format: cell-based; conditions: nutrient agar
[7] = system: Candida albicans IAM 4888; assay: MIC, serial two-fold agar dilution; format: cell-based; conditions: IAM4888, Sabouraud agar
[8] = system: Cryptococcus neoformans D49; assay: MIC, serial two-fold agar dilution; format: cell-based; conditions: Sabouraud agar
[9] = system: Aspergillus fumigatus IAM 2530; assay: MIC, serial two-fold agar dilution; format: cell-based; conditions: IAM2530, Sabouraud agar
[10] = system: Trichophyton mentagrophytes D155; assay: MIC, serial two-fold agar dilution; format: cell-based; conditions: Sabouraud agar
Bacteroides fragilis = assay: MIC, serial two-fold agar dilution; format: cell-based; conditions: GAM agar, anaerobe
Clostridium difficile = assay: MIC, serial two-fold agar dilution; format: cell-based; conditions: Clostridioides difficile; GAM agar, anaerobe
Clostridium perfringens = assay: microbe, parasite or virus in culture; format: cell-based
Propionibacterium acnes = assay: MIC, serial two-fold agar dilution; format: cell-based; conditions: Cutibacterium acnes; GAM agar, anaerobe
Staphylococcus aureus = assay: anti-staphylococcal activity (MIC comparison); format: cell-based; conditions: vs BBM-2478B or chartreusin
[11] = system: gram-negative bacteria and fungi; assay: antibacterial/antifungal activity (MIC), summary; format: cell-based
[12] = system: P388, L1210 and B16 tumors; assay: antitumor activity in mice, summary over P388, L1210 and B16; format: in vivo, BDF1 mice
[13] = acute toxicity, single intraperitoneal administration; conditions: mouse, in vivo; single ip, mice (ddY strain)
solubility = format: physicochemical
[14] = system: aerobic gram-positive bacteria and anaerobic bacteria; assay: antibacterial activity, summary; format: cell-based
Excerpt: Nutrient agar medium was used for gram-positive and gram-negative bacteria, GAM agar medium for anaerobes and Sabouraud agar medium for fungi.

melanotic melanoma B16 = assay: antitumor activity, B16 melanoma in mice; conditions: qd 1→9
[15] = system: lymphocytic leukemia P388; assay: antitumor activity, P388 leukemia in mice; conditions: qd 1→9
lymphoid leukemia L1210 = assay: antitumor activity, L1210 leukemia in mice; conditions: qd 1→9

Molecule `CO[C@@H]1[C@@H](N)[C@@H](O[C@H]2[C@H](Oc3cccc4c(O)c5c(=O)oc6ccc(C)c7c(=O)oc(c34)c5c67)O[C@H](C)[C@H](O)[C@]2(C)O)O[C@H](C)[C@@H]1O` [BBM-2478A] has an MIC [1] of 1.6 µg/mL (≈ 2.45 µM), an MIC [2] of 0.8 µg/mL (≈ 1.22 µM) and an MIC [3] of 0.8 µg/mL (≈ 1.22 µM). It also gave an MIC [4] of 0.8 µg/mL (≈ 1.22 µM), an MIC (Micrococcus flavus D12) of 0.8 µg/mL (≈ 1.22 µM) and an MIC (Escherichia coli NIHJ) of 100 µg/mL (≈ 153 µM). It also gave an MIC [5] of 100 µg/mL (≈ 153 µM), an MIC [6] of 100 µg/mL (≈ 153 µM) and an MIC [7] of over 100 µg/mL. It also gave an MIC [8] of over 100 µg/mL, an MIC [9] of over 100 µg/mL and an MIC [10] of over 100 µg/mL. It also gave an MIC (Bacteroides fragilis) of 12.5 µg/mL (≈ 19.1 µM), an MIC (Clostridium difficile) of 12.5 µg/mL (≈ 19.1 µM) and an MIC (Clostridium perfringens) of 6.3 µg/mL (≈ 9.64 µM). The MIC (Propionibacterium acnes) was 6.3 µg/mL (≈ 9.64 µM), the “anti-staphylococcal activity relative to BBM-2478B or chartreusin” value (Staphylococcus aureus) was “two to four times higher” and the “activity against gram-negative bacteria and fungi” value [11] was “inactive”. For the same molecule, the “T/C values compared with chartreusin” value ([12]; all tumors tested, ip, qd 1→9) was “superior to those of chartreusin”, the antitumor activity ([12]; experimental mouse tumors) was “significant antitumor activity” and the LD50 [13] was 38 mg/kg. The “solubility in acidic water” value (solubility; acidic water) was “readily soluble”, the “solubility in dimethyl sulfoxide, dimethylformamide, dioxane” value (solubility; dimethyl sulfoxide, dimethylformamide, dioxane) was “readily soluble” and the “solubility in methanol, ethanol and chloroform” value (solubility; methanol, ethanol, chloroform) was “slightly soluble”. The “solubility in other organic solvents” value (solubility; other organic solvents) was “insoluble”, the antibacterial activity [14] was “potent antibacterial activity” and the “Average wt. change on day 5” value (melanotic melanoma B16; 0.03 mg/kg/day ip) was “+2.0 g”. For the same molecule, the MST (melanotic melanoma B16; 0.03 mg/kg/day ip) was 16.0 days, the “Survivors on day 5” value (melanotic melanoma B16; 0.03 mg/kg/day ip) was 6/6 and the “Survivors on day 45” value (melanotic melanoma B16; 0.03 mg/kg/day ip) was 0/6. The T/C (melanotic melanoma B16; 0.03 mg/kg/day ip) was 114%, the “Average wt. change on day 5” value (melanotic melanoma B16; 0.1 mg/kg/day ip) was “+2.5 g” and the MST (melanotic melanoma B16; 0.1 mg/kg/day ip) was 18.5 days. For the same molecule, the “Survivors on day 5” value (melanotic melanoma B16; 0.1 mg/kg/day ip) was 6/6, the “Survivors on day 45” value (melanotic melanoma B16; 0.1 mg/kg/day ip) was 0/6 and the “Average wt. change on day 5” value (melanotic melanoma B16; 0.3 mg/kg/day ip) was “+2.5 g”. The MST (melanotic melanoma B16; 0.3 mg/kg/day ip) was 25.5 days, the “Survivors on day 5” value (melanotic melanoma B16; 0.3 mg/kg/day ip) was 6/6 and the “Survivors on day 45” value (melanotic melanoma B16; 0.3 mg/kg/day ip) was 0/6. The “Average wt. change on day 5” value (melanotic melanoma B16; 1 mg/kg/day ip) was “+2.2 g”, the MST (melanotic melanoma B16; 1 mg/kg/day ip) was 34.5 days and the “Survivors on day 5” value (melanotic melanoma B16; 1 mg/kg/day ip) was 6/6. The “Survivors on day 45” value (melanotic melanoma B16; 1 mg/kg/day ip) was 0/6, the “Average wt. change on day 5” value (melanotic melanoma B16; 3 mg/kg/day ip) was “+1.5 g” and the MST (melanotic melanoma B16; 3 mg/kg/day ip) was 41.5 days. For the same molecule, the “Survivors on day 5” value (melanotic melanoma B16; 3 mg/kg/day ip) was 6/6, the “Survivors on day 45” value (melanotic melanoma B16; 3 mg/kg/day ip) was 0/6 and the “Average wt. change on day 5” value ([15]; 0.01 mg/kg/day ip) was “+2.0 g”. The MST ([15]; 0.01 mg/kg/day ip) was 10.0 days, the “Survivors on day 5” value ([15]; 0.01 mg/kg/day ip) was 6/6 and the “Survivors on day 45” value ([15]; 0.01 mg/kg/day ip) was 0/6. The T/C ([15]; 0.01 mg/kg/day ip) was 111%, the “Average wt. change on day 5” value ([15]; 0.03 mg/kg/day ip) was “+2.3 g” and the MST ([15]; 0.03 mg/kg/day ip) was 10.0 days. The “Survivors on day 5” value ([15]; 0.03 mg/kg/day ip) was 6/6, the “Survivors on day 45” value ([15]; 0.03 mg/kg/day ip) was 0/6 and the “Average wt. change on day 5” value ([15]; 0.1 mg/kg/day ip) was “+1.2 g”. The MST ([15]; 0.1 mg/kg/day ip) was 14.5 days, the “Survivors on day 5” value ([15]; 0.1 mg/kg/day ip) was 6/6 and the “Survivors on day 45” value ([15]; 0.1 mg/kg/day ip) was 0/6. For the same molecule, the “Average wt. change on day 5” value ([15]; 0.3 mg/kg/day ip) was “+1.8 g”, the MST ([15]; 0.3 mg/kg/day ip) was 17.0 days and the “Survivors on day 5” value ([15]; 0.3 mg/kg/day ip) was 6/6. The “Survivors on day 45” value ([15]; 0.3 mg/kg/day ip) was 0/6, the “Average wt. change on day 5” value ([15]; 1 mg/kg/day ip) was “+0.8 g” and the MST ([15]; 1 mg/kg/day ip) was 21.5 days. The “Survivors on day 5” value ([15]; 1 mg/kg/day ip) was 6/6, the “Survivors on day 45” value ([15]; 1 mg/kg/day ip) was 0/6 and the “Average wt. change on day 5” value ([15]; 3 mg/kg/day ip) was -1.0 g. The MST ([15]; 3 mg/kg/day ip) was 20.0 days, the “Survivors on day 5” value ([15]; 3 mg/kg/day ip) was 5/5 and the “Survivors on day 45” value ([15]; 3 mg/kg/day ip) was 0/5. For the same molecule, the “Average wt. change on day 5” value (lymphoid leukemia L1210; 0.01 mg/kg/day ip) was “+3.2 g”, the MST (lymphoid leukemia L1210; 0.01 mg/kg/day ip) was 8.0 days and the “Survivors on day 5” value (lymphoid leukemia L1210; 0.01 mg/kg/day ip) was 6/6. For the same molecule, the “Survivors on day 45” value (lymphoid leukemia L1210; 0.01 mg/kg/day ip) was 0/6, the T/C (lymphoid leukemia L1210; 0.01 mg/kg/day ip) was 100% and the “Average wt. change on day 5” value (lymphoid leukemia L1210; 0.03 mg/kg/day ip) was “+2.9 g”. The MST (lymphoid leukemia L1210; 0.03 mg/kg/day ip) was 8.0 days, the “Survivors on day 5” value (lymphoid leukemia L1210; 0.03 mg/kg/day ip) was 6/6 and the “Survivors on day 45” value (lymphoid leukemia L1210; 0.03 mg/kg/day ip) was 0/6. The T/C (lymphoid leukemia L1210; 0.03 mg/kg/day ip) was 100%, the “Average wt. change on day 5” value (lymphoid leukemia L1210; 0.1 mg/kg/day ip) was “+2.6 g” and the MST (lymphoid leukemia L1210; 0.1 mg/kg/day ip) was 8.0 days. For the same molecule, the “Survivors on day 5” value (lymphoid leukemia L1210; 0.1 mg/kg/day ip) was 6/6, the “Survivors on day 45” value (lymphoid leukemia L1210; 0.1 mg/kg/day ip) was 0/6 and the T/C (lymphoid leukemia L1210; 0.1 mg/kg/day ip) was 100%. The “Average wt. change on day 5” value (lymphoid leukemia L1210; 0.3 mg/kg/day ip) was “+1.3 g”, the MST (lymphoid leukemia L1210; 0.3 mg/kg/day ip) was 10.5 days and the “Survivors on day 5” value (lymphoid leukemia L1210; 0.3 mg/kg/day ip) was 6/6. For the same molecule, the “Survivors on day 45” value (lymphoid leukemia L1210; 0.3 mg/kg/day ip) was 0/6, the “Average wt. change on day 5” value (lymphoid leukemia L1210; 1 mg/kg/day ip) was -0.8 g and the MST (lymphoid leukemia L1210; 1 mg/kg/day ip) was 11.0 days. The “Survivors on day 5” value (lymphoid leukemia L1210; 1 mg/kg/day ip) was 6/6, the “Survivors on day 45” value (lymphoid leukemia L1210; 1 mg/kg/day ip) was 0/6 and the “Average wt. change on day 5” value (lymphoid leukemia L1210; 3 mg/kg/day ip) was -0.1 g. For the same molecule, the MST (lymphoid leukemia L1210; 3 mg/kg/day ip) was 12.0 days, the “Survivors on day 5” value (lymphoid leukemia L1210; 3 mg/kg/day ip) was 6/6 and the “Survivors on day 45” value (lymphoid leukemia L1210; 3 mg/kg/day ip) was 0/6.
